Source: ChEMBL document CHEMBL2086247, “Protein-ligand crystal structures can guide the design of selective inhibitors of the FGFR tyrosine kinase” (J Med Chem, 2012)
pIC50: −log10 of the molar value.

Key:
[1] = target: T1, Vascular endothelial growth factor receptor 2 (Homo sapiens, UniProt P35968); assay: Inhibition of recombinant N terminal GST-tagged human KDR (805 to 1356) expressed in baculovirus infected Sf9 cells after 90 mins by caliper mobility shift assay
[2] = target: T2, Insulin-like growth factor 1 receptor (Homo sapiens, UniProt P08069); assay: Inhibition of recombinant N terminal His6-tagged human IGF1R (959 to end) expressed in baculovirus infected Sf21 cells after 80 mins by caliper mobility shift assay
[3] = target: T1, Vascular endothelial growth factor receptor 2; assay: Inhibition of human KDR phosphorylation expressed in VEGF-stimulated HUVEC treated 90 mins before VEGF stimulation measured after 5 mins by ELISA; assay type: cell-based
[4] = target: T3, Fibroblast growth factor receptor 1 (Homo sapiens, UniProt P11362)
Description: Inhibition of human FGFR1 phosphorylation expressed in COS1 cells after 1 hr by immunoblotting

[5] = target: T3, Fibroblast growth factor receptor 1; assay: biochemical
Description: Inhibition of recombinant N terminal GST-tagged human FGFR1 (456 to 765) expressed in baculovirus infected Sf21 cells after 40 mins by caliper mobility shift assay

[6] = target: T2, Insulin-like growth factor 1 receptor; assay: Inhibition of human IGF1R phosphorylation expressed in IGF-1-stimulated knockout mouse R+ cells treated 30 mins before IGF-1 stimulation measured after 20 mins by immunofluorescence
[7] = target: Dual specificity mitogen-activated protein kinase kinase 1 (Homo sapiens, UniProt Q02750); assay: Inhibition of MEK1 fused with GST by autoradiography
Sequence of Dual specificity mitogen-activated protein kinase kinase 1 (Q02750 whole entry, the tested form may be a part): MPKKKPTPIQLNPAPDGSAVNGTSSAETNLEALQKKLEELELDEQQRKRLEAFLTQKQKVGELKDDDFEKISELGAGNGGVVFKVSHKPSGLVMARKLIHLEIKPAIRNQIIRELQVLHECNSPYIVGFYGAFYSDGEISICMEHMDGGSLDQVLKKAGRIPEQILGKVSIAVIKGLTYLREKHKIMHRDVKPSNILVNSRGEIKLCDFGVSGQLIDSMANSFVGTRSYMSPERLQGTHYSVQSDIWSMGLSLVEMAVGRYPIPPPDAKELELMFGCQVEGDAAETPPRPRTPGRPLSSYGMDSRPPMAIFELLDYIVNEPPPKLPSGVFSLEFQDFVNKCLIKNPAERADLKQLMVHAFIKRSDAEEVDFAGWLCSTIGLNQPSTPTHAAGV

T1 sequence (P35968 whole entry): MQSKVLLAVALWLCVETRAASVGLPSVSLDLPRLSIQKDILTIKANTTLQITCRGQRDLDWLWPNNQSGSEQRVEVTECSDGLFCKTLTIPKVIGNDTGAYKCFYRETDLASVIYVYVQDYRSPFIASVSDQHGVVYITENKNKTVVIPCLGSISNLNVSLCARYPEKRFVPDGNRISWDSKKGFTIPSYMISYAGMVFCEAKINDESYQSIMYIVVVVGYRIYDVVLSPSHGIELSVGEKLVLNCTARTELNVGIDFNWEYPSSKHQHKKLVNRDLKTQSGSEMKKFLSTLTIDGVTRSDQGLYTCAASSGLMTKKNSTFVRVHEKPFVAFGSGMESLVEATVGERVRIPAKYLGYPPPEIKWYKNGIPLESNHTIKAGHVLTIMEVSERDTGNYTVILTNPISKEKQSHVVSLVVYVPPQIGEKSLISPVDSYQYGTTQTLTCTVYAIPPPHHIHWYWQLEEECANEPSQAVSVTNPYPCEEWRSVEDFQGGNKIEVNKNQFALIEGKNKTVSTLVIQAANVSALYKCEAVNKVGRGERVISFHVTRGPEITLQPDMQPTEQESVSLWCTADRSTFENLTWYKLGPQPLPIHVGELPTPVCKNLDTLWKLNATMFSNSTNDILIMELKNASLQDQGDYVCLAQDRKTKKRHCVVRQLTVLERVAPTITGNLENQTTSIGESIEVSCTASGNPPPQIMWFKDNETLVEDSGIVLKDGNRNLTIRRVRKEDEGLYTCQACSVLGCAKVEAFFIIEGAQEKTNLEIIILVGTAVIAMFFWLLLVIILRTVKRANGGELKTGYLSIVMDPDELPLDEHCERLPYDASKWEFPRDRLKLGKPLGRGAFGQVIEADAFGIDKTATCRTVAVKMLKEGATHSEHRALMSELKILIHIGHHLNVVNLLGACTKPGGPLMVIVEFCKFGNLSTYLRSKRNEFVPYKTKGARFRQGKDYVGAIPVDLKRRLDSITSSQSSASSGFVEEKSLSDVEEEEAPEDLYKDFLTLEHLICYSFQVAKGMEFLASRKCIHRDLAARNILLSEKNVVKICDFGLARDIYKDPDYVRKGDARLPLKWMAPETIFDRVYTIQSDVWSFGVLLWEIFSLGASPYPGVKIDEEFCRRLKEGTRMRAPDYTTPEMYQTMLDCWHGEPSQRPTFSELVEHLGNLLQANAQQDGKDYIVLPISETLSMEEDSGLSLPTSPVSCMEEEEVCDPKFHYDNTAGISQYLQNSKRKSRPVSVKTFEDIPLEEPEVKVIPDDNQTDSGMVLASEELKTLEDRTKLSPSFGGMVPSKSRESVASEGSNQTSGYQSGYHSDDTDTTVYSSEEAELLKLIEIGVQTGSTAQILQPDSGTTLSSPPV
T3 sequence (P11362 whole entry): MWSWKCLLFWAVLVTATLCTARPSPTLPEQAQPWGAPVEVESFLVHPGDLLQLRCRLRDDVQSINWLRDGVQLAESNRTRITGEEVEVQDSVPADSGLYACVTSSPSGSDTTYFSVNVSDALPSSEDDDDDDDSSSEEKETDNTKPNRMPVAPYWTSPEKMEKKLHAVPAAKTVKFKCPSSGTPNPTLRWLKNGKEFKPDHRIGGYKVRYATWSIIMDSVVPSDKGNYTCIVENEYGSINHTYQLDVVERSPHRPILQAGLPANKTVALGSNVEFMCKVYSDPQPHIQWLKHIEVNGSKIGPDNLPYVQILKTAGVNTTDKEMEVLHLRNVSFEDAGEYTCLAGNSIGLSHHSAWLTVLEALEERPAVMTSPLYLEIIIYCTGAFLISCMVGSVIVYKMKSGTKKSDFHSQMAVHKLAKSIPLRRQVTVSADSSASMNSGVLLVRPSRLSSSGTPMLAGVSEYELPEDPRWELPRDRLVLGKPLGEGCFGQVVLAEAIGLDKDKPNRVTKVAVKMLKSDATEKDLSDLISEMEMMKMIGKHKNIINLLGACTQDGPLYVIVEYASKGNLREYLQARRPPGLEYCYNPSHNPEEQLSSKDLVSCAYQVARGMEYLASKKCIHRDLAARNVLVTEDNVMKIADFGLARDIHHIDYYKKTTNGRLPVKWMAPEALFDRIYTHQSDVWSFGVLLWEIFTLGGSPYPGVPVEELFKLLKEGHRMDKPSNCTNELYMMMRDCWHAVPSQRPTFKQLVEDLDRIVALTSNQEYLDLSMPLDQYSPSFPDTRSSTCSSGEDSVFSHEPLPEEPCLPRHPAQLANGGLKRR

Row | SMILES | pIC50 [1] | pIC50 [2] | pIC50 [3] | pIC50 [4] | pIC50 [5] | pIC50 [6] | pIC50 [7]
1 | Cc1cc(Nc2nc(NCCc3cccnc3)ncc2Br)[nH]n1 | 6.20 | 5.20 | < 5.00 | 5.60 | 6.30 | 5.40 | –
2 | C=CCNc1ncc(Br)c(Nc2cc(C)[nH]n2)n1 | 6.00 | 5.40 | 6.10 | – | – | 5.20 | –
3 | COCCCc1cc(Nc2nc(NCc3cc(C)no3)ncc2Br)[nH]n1 | 5.90 | 4.70 | < 5.00 | 6.10 | 7.20 | < 4.70 | –
4 | COc1cc(CCc2cc(Nc3ccnc(NCc4cc(C)no4)n3)n[nH]2)cc(OC)c1 | 7.10 | 5.20 | 5.80 | > 7.80 | 8.70 | 5.30 | –
5 | Cc1cc(CNc2nccc(Nc3cc(C)[nH]n3)n2)on1 | 6.00 | 4.90 | – | – | – | – | –
6 | COCCCc1cc(Nc2ccnc(NCc3cc(C)no3)n2)n[nH]1 | 5.60 | – | – | – | – | – | –
7 | Cc1cc(CNc2nccc(Nc3cc(CCc4ccccc4)[nH]n3)n2)on1 | 6.90 | – | – | – | – | – | –
8 | Cc1cc(Nc2nc(NCCCc3c[nH]nc3C)ncc2Br)n[nH]1 | 6.30 | 5.20 | – | – | 6.90 | – | –
9 | Cc1cc(Nc2nc(NCCc3ccco3)ncc2Br)n[nH]1 | 6.70 | 5.40 | – | – | 6.70 | – | –
10 | Cc1cc(Nc2ccnc(NCc3cc(C4CC4)no3)n2)n[nH]1 | 6.10 | 5.00 | – | – | 7.60 | – | –
11 | Cc1cc(Nc2ccnc(NCc3cc(C(N)=O)no3)n2)[nH]n1 | 5.90 | 5.10 | – | – | 7.00 | – | –
12 | Cc1cc(CNc2nccc(Nc3cc(CO)[nH]n3)n2)on1 | 4.70 | 4.40 | – | – | – | – | –
13 | CCc1cc(Nc2nc(NCc3ccccn3)ncc2Br)n[nH]1 | 6.30 | 5.50 | – | – | 7.40 | – | –
14 | CCCc1cc(Nc2nc(NCc3cccnc3)ncc2Br)n[nH]1 | 6.90 | 5.80 | – | – | – | – | –
15 | CC(C)c1cc(Nc2nc(NCc3cccnc3)ncc2Br)n[nH]1 | 6.40 | 6.40 | – | – | – | – | –
16 | COCCCc1cc(Nc2ccnc(NCc3cc(C4CC4)no3)n2)n[nH]1 | 5.80 | 4.90 | – | – | – | – | –
17 | COCCCc1cc(Nc2ccnc(NCc3cc(C(N)=O)no3)n2)[nH]n1 | 5.90 | 4.00 | – | – | – | – | –
18 | COc1cc(CCc2cc(Nc3ccnc(NCc4ccccn4)n3)[nH]n2)cc(OC)c1 | 6.40 | 4.10 | – | – | 8.30 | – | –
19 | COc1cc(CCc2cc(Nc3ccnc(NCc4cc(C)on4)n3)n[nH]2)cc(OC)c1 | 6.90 | 4.90 | – | – | 8.70 | – | –
20 | CCN(CC)CCCCNc1ncc2cc(-c3cc(OC)cc(OC)c3)c(NC(=O)NC(C)(C)C)nc2n1 [PD-173074] | – | – | – | – | – | – | < 4.30

Next, values leading:

Row | pIC50 [1] | pIC50 [2] | pIC50 [3] | pIC50 [4] | pIC50 [5] | pIC50 [6] | pIC50 [7] | SMILES
21 | 6.20 | 5.10 | 5.20 | 6.80 | 7.20 | 5.20 | – | Cc1cc(Nc2nc(NCc3cc(C)no3)ncc2Br)[nH]n1
22 | 5.40 | 5.00 | < 5.00 | 6.80 | 7.50 | 5.50 | – | Cc1cc(Nc2nc(NCc3cc(C(C)(C)C)no3)ncc2Br)[nH]n1
23 | 6.80 | 6.40 | 5.20 | 7.00 | 8.00 | 6.30 | – | CCCc1cc(Nc2nc(NCc3cc(C)no3)ncc2Br)n[nH]1
24 | 7.60 | 5.20 | 5.80 | 7.20 | 8.60 | 5.00 | – | Cc1cc(CNc2ncc(Br)c(Nc3cc(CCc4ccccc4)[nH]n3)n2)on1
25 | 6.30 | 5.10 | – | – | – | – | – | Cc1cc(CNc2ncc(Cl)c(Nc3cc(C)[nH]n3)n2)on1
26 | 5.80 | 4.90 | – | – | 6.70 | – | – | Cc1cc(Nc2nc(NCc3ccccn3)ncc2Br)n[nH]1
27 | 6.00 | 4.90 | – | – | 7.00 | – | – | Cc1cnc(CNc2ncc(Br)c(Nc3cc(C)[nH]n3)n2)cn1
28 | 6.30 | 4.80 | – | – | 6.40 | – | – | Cc1cc(CCNc2ncc(Br)c(Nc3cc(C)[nH]n3)n2)on1
29 | 6.30 | 4.30 | – | – | – | – | – | Cc1cc(Nc2nc(NCc3ncccc3C)ncc2Br)n[nH]1
30 | 4.80 | 5.00 | – | – | – | – | – | Cc1cc(Nc2nc(NCc3cc(C(=O)N4CCCC4)no3)ncc2Br)n[nH]1
31 | 5.50 | 7.00 | – | – | – | – | – | CCc1cc(Nc2nc(NCc3cc(-c4ccccn4)no3)ncc2Br)n[nH]1
